The values below are quoted from earlier work in US8409558B2, “Method for treatment of onychomycosis” (priority 2005, dated 2013).

The subject of the data set is onychomycosis (nail fungus).

Regarding `CN(C/C=C/C#CC(C)(C)C)Cc1cccc2ccccc12` [Lamisil, terbinafine], for the setting “continuous oral therapy”, the complete cure is given as 41% and the mycological cure is recorded as 71%. In addition, under “oral therapy, Warshaw et al. JAAD October 2005”, the “cure of all nails (complete cure of all nails after 1 yr; % effective)” value is recorded as 25%.
